Results published in PMC1456331 (Nucleic Acids Research, 2006).

Experiments:
[1] = system: Phoenix Eco cells; assay: Cellular uptake of fluorescein-labeled oligomers; assay type: cell-based
[2] = estimated; 5 µM oligomer, 37°C, DMEM/10% FBS; denaturing gel, densitometry
[3] = system: Phoenix Eco cells; assay: Live-cell confocal microscopy, intracellular localization; assay type: cell-based
[4] = system: Phoenix Eco cells

Compound	time of maximum uptake ([1]; in the presence of LFA) [h]	fluorescence in treated cells (in words) ([1]; in the presence of Lipofectamine-2000 (LFA), oligomer or its duplex with CT-ODN, after 4 h already)	half-life [2] [h]	intracellular distribution (in words) [3]	cell viability [4]
pHypNA TCACTCAACACTCAC-Flu: fluorescein-labeled trans-L pHypNA oligomer, sequence TCACTCAACACTCAC-Flu (pHypNA backbone; fluorescein)	20 to 24	high level of fluorescence	~72	evenly distributed in the cytoplasm with preferential staining of the nucleus	–
CCN(CC)CCCC(C)Nc1ccnc2cc(Cl)ccc12 (centres unmarked) [chloroquine]	–	–	–	–	80–85%
